# pKi: −log10 of the molar value.
# How the values were obtained:
# [1] = target: T1, cloned human CRF-R1 receptors (Homo sapiens, UniProt P34998); assay: CRF-R1 receptor binding assay (inhibition of 125I-ovine-CRF binding to cell membranes); settings: membranes of 293EBNA cells transfected with hCRFR1, class d = reported as percent inhibition at 10 μM, figures not given, read-out: activity (Ki class in the CRF assays)
# T1 construct: the coding region was amplifies by PCR from start to stop codons; expressed in transfected cells; membranes
# T1 sequence (P34998 24-415): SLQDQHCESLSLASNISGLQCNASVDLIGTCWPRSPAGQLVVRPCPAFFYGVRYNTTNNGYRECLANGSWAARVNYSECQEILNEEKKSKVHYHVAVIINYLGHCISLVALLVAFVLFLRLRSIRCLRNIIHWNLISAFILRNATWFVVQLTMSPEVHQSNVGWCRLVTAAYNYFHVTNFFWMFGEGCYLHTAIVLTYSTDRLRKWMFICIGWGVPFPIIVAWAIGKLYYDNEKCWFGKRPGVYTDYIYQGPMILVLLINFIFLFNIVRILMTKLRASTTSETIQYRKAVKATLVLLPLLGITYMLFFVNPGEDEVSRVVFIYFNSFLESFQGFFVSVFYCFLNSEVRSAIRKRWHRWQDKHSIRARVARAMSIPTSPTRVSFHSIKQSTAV
# Summary of the method: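 Membranes from hygromycin-selected 293EBNA cells expressing human CRF-R1 were incubated for 2 h at room temperature with 150 pM 125I-ovine-CRF and test drug at 10^−10–10^−5 M final, in pH 7.0 HEPES buffer with MgCl2 and EGTA. Bound ligand was collected by filtration and gamma-counted, and Ki values were derived by iterative curve fitting.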
compound,measurement,setting,value
"CCc1ccc(S(=O)(=O)c2ccc(C)nc2Nc2ccc(OC)cc2Cl)cc1 [Example 69, (2-Chloro-4-methoxyphenyl)-[3-(4-ethylbenzenesulfonyl)-6-methylpyridin-2-yl]-amine]",pKi,[1],6.30 to 7.00
same,melting point,,110 to 112 °C

# Source: patent publication US7030145B2, “Pyridinyl derivatives for the treatment of depression” (Bristol-Myers Squibb Company, priority 2003, dated 2006)
